Data set [1] is described as follows: Double Williamson ether macrocyclisation of preformed bipyridine precursor with a bis-electrophile, high dilution (previous syntheses). The settings on record: the molecule shown is the open-chain precursor; 25-membered ring; DMF; 72.0 h; cited from earlier work.
Data set [2] is described as follows: Ni-mediated reductive aryl-aryl (2-halopyridine) homo/cross-coupling forming the 2,2'-bipyridine C-C bond; [Ni(PPh3)2Br2] 1 eq, PPh3 2 eq, Mn 10 eq, NEt4I 1 eq; slow addition of dihalide over 4 h. The note with it: DMF, 50.0 mM, 50.0 °C.

As to `Oc1ccc(-c2cccc(-c3cccc(CCCc4ccc(OCc5ccc(CBr)cc5)cc4)n3)n2)cc1`, in data set [1], the ring closure, isolated yield is 6%.
In the case of `c1cc2cc(c1)-c1cccc(n1)CCCc1ccc(cc1)OCCCCOc1ccc(cc1)COC2`, the ring closure, isolated yield in data set [2] (from Brc1cccc(CCCc2ccc(OCCCCOc3ccc(COCc4cccc(I)c4)cc3)cc2)n1, 26-membered ring, 5.0 h) was found to be 24%.
`c1cc2nc(c1)-c1cccc(n1)-c1ccc(cc1)OCc1ccc(cc1)COc1ccc(cc1)CCC2` yielded a ring closure, isolated yield in data set [2] (from Brc1cccc(CCCc2ccc(OCc3ccc(COc4ccc(-c5cccc(Br)n5)cc4)cc3)cc2)n1, 25-membered ring, 5.0 h) of 41%.
Compound `c1cc2nc(c1)-c1cccc(n1)OCCc1ccc(cc1)OCCCCOc1ccc(cc1)CCO2` displayed a ring closure, isolated yield in data set [2] (from Brc1cccc(OCCc2ccc(OCCCCOc3ccc(CCOc4cccc(Br)n4)cc3)cc2)n1, 26-membered ring, 5.0 h) of 65%.
With `c1cc2nc(c1)-c1cccc(n1)CCCc1ccc(cc1)OCCCCOc1ccc(cc1)CCC2` [1a -> 2a], the ring closure, isolated yield in data set [2] (from Brc1cccc(CCCc2ccc(OCCCCOc3ccc(CCCc4cccc(Br)n4)cc3)cc2)n1, 26-membered ring, 5.0 h) came out at 71%.
As to `c1cc2nc(c1)-c1cccc(n1)COCc1ccc(cc1)OCCCCOc1ccc(cc1)COC2` [1b -> 2b], the ring closure, isolated yield in data set [2] (from Brc1cccc(COCc2ccc(OCCCCOc3ccc(COCc4cccc(Br)n4)cc3)cc2)n1, 26-membered ring, 5.0 h) was 70%.
In data set [2] (from Brc1cccc(COCc2ccc(OCCCCCCCCCCOc3ccc(COCc4cccc(Br)n4)cc3)cc2)n1, 32-membered ring, 5.0 h), `c1cc2nc(c1)-c1cccc(n1)COCc1ccc(cc1)OCCCCCCCCCCOc1ccc(cc1)COC2` [1c -> 2c] showed a ring closure, isolated yield of 67%.
Compound `c1cc2nc(c1)-c1cccc(n1)-c1ccc(cc1)OCCOCCOCCOCCOc1ccc-2cc1` [1e -> 2e] showed a ring closure, isolated yield in data set [2] (from Brc1cccc(-c2ccc(OCCOCCOCCOCCOc3ccc(-c4cccc(Br)n4)cc3)cc2)n1, 27-membered ring, 5.0 h) of 73%.
In turn, `c1cc2nc(c1)-c1cccc(n1)COCc1ccc(cc1)OCCCCOc1ccc(cc1)CCC2` [1f -> 2f] came in with a ring closure, isolated yield in data set [2] (from Brc1cccc(CCCc2ccc(OCCCCOc3ccc(COCc4cccc(Br)n4)cc3)cc2)n1, 26-membered ring, 5.0 h) of 76%.
As for `c1cc2nc(c1)-c1cccc(n1)-c1ccc(cc1)OCCCCCCCOc1ccc(cc1)CCC2` [1g -> 2g (DMF-THF 3:1)], in data set [2] (from Brc1cccc(CCCc2ccc(OCCCCCCCOc3ccc(-c4cccc(Br)n4)cc3)cc2)n1, 26-membered ring, 5.0 h), the ring closure, isolated yield was 66%.
Compound `c1cc2cc(c1)-c1cccc(n1)CCCc1ccc(cc1)OCCCCOc1ccc(cc1)COC2` [1i(Br) dibromo precursor -> 2i] showed a ring closure, isolated yield in data set [2] (from Brc1cccc(COCc2ccc(OCCCCOc3ccc(CCCc4cccc(Br)n4)cc3)cc2)c1, 26-membered ring) of 16%.
In data set [2] (from Clc1cccc(COCc2ccc(OCCCCOc3ccc(COCc4cccc(Cl)n4)cc3)cc2)n1, 26-membered ring), `c1cc2nc(c1)-c1cccc(n1)COCc1ccc(cc1)OCCCCOc1ccc(cc1)COC2` [S4 (dichloro analogue of 1b) -> 2b] came in with a ring closure, isolated yield of 56%.

These data come from paper PMC6005271.
